Results from the NIST ThermoML archive (doi:10.1016/j.fluid.2011.02.010).
Numbers after ± are expanded uncertainties.

Assay: xn = mol fraction of the nth substance listed
Details: 101 kPa, Liquid; for speed of sound: Frequency=2 MHz

CC[NH2+]CC.O=S(=O)([O-])O [diethylammonium hydrogen sulfate] + C[S+](C)[O-]
Details | mass density [kg/m3] | speed of sound [m/s] | viscosity [mPa·s]
298.15 K, x1 = 0.0569 | – | 1486 ± 9 | 2.94 ± 0.24
298.15 K, x1 = 0.1196 | – | 1476 ± 9 | 4.13 ± 0.32
298.15 K, x1 = 0.189 | – | 1466 ± 9 | 5.55 ± 0.41
298.15 K, x1 = 0.2461 | – | 1460 ± 9 | 6.77 ± 0.48
298.15 K, x1 = 0.308 | – | 1450 ± 9 | 8.15 ± 0.57
298.15 K, x1 = 0.3756 | – | 1444 ± 9 | 9.66 ± 0.66
298.15 K, x1 = 0.4494 | – | 1434 ± 9 | 11.38 ± 0.77
298.15 K, x1 = 0.5306 | – | 1428 ± 9 | 13.31 ± 0.89
298.15 K, x1 = 0.6201 | – | 1424 ± 9 | 15.49 ± 1
298.15 K, x1 = 0.6852 | – | 1420 ± 9 | 17.12 ± 1.1
298.15 K, x1 = 0.7552 | – | 1420 ± 9 | 18.87 ± 1.2
298.15 K, x1 = 0.8306 | – | 1426 ± 9 | 20.88 ± 1.4
298.15 K, x1 = 0.912 | – | 1428 ± 9 | 23.1 ± 1.5
298.15 K, x1 = 1 | 1028.39 ± 10 | 1432 ± 9 | 25.8 ± 1.7
303.15 K, x1 = 0.0569 | – | 1462 ± 9 | 2.53 ± 0.22
303.15 K, x1 = 0.1196 | – | 1452 ± 9 | 3.48 ± 0.28
303.15 K, x1 = 0.189 | – | 1442 ± 9 | 4.64 ± 0.35
303.15 K, x1 = 0.2461 | – | 1434 ± 9 | 5.62 ± 0.41
303.15 K, x1 = 0.308 | – | 1426 ± 9 | 6.74 ± 0.48
303.15 K, x1 = 0.3756 | – | 1418 ± 9 | 8.01 ± 0.56
303.15 K, x1 = 0.4494 | – | 1410 ± 9 | 9.41 ± 0.65
303.15 K, x1 = 0.5306 | – | 1404 ± 9 | 11.02 ± 0.75
303.15 K, x1 = 0.6201 | – | 1400 ± 9 | 12.83 ± 0.86
303.15 K, x1 = 0.6852 | – | 1398 ± 9 | 14.18 ± 0.95
303.15 K, x1 = 0.7552 | – | 1398 ± 9 | 15.65 ± 1
303.15 K, x1 = 0.8306 | – | 1400 ± 9 | 17.27 ± 1.1
303.15 K, x1 = 0.9121 | – | 1404 ± 9 | 19.14 ± 1.3
303.15 K, x1 = 1 | 1023.97 ± 10 | 1408 ± 9 | 21.3 ± 1.4
308.15 K, x1 = 0.0569 | – | 1446 ± 9 | 2.33 ± 0.21
308.15 K, x1 = 0.1196 | – | 1436 ± 9 | 3.16 ± 0.26
308.15 K, x1 = 0.189 | – | 1428 ± 9 | 4.12 ± 0.32
308.15 K, x1 = 0.2461 | – | 1418 ± 9 | 4.94 ± 0.37
308.15 K, x1 = 0.308 | – | 1410 ± 9 | 5.85 ± 0.43
308.15 K, x1 = 0.3756 | – | 1402 ± 9 | 6.86 ± 0.49
308.15 K, x1 = 0.4494 | – | 1396 ± 8 | 8.02 ± 0.56
308.15 K, x1 = 0.5306 | – | 1388 ± 8 | 9.35 ± 0.65
308.15 K, x1 = 0.6201 | – | 1384 ± 8 | 10.89 ± 0.74
308.15 K, x1 = 0.6852 | – | 1384 ± 8 | 12.06 ± 0.82
308.15 K, x1 = 0.7552 | – | 1382 ± 8 | 13.39 ± 0.9
308.15 K, x1 = 0.8306 | – | 1384 ± 9 | 14.84 ± 0.99
308.15 K, x1 = 0.9121 | – | 1388 ± 9 | 16.38 ± 1.1
308.15 K, x1 = 1 | 1020.54 ± 10 | 1392 ± 9 | 18.1 ± 1.2
318.15 K, x1 = 0.0569 | – | 1414 ± 9 | 2 ± 0.19
318.15 K, x1 = 0.1196 | – | 1404 ± 8 | 2.63 ± 0.23
318.15 K, x1 = 0.189 | – | 1392 ± 8 | 3.33 ± 0.27
318.15 K, x1 = 0.2461 | – | 1386 ± 8 | 3.93 ± 0.31
318.15 K, x1 = 0.308 | – | 1378 ± 8 | 4.59 ± 0.35
318.15 K, x1 = 0.3756 | – | 1370 ± 8 | 5.34 ± 0.39
318.15 K, x1 = 0.4494 | – | 1362 ± 8 | 6.22 ± 0.45
318.15 K, x1 = 0.5306 | – | 1356 ± 8 | 7.19 ± 0.51
318.15 K, x1 = 0.6201 | – | 1350 ± 8 | 8.32 ± 0.58
318.15 K, x1 = 0.6852 | – | 1348 ± 8 | 9.16 ± 0.63
318.15 K, x1 = 0.7552 | – | 1346 ± 8 | 10.1 ± 0.69
318.15 K, x1 = 0.8306 | – | 1348 ± 8 | 11.1 ± 0.76
318.15 K, x1 = 0.9121 | – | 1352 ± 8 | 12.3 ± 0.83
318.15 K, x1 = 1 | 1012.68 ± 10 | 1356 ± 8 | 13.61 ± 0.92
328.15 K, x1 = 0.0569 | – | 1400 ± 8 | 1.6 ± 0.16
328.15 K, x1 = 0.1196 | – | 1406 ± 8 | 2.24 ± 0.2
328.15 K, x1 = 0.189 | – | 1392 ± 8 | 2.95 ± 0.25
328.15 K, x1 = 0.2461 | – | 1382 ± 8 | 3.51 ± 0.28
328.15 K, x1 = 0.308 | – | 1372 ± 8 | 4.12 ± 0.32
328.15 K, x1 = 0.3756 | – | 1362 ± 8 | 4.77 ± 0.36
328.15 K, x1 = 0.4494 | – | 1352 ± 8 | 5.46 ± 0.4
328.15 K, x1 = 0.5306 | – | 1342 ± 8 | 6.21 ± 0.45
328.15 K, x1 = 0.6201 | – | 1332 ± 8 | 7.02 ± 0.5
328.15 K, x1 = 0.6852 | – | 1326 ± 8 | 7.57 ± 0.53
328.15 K, x1 = 0.7552 | – | 1322 ± 8 | 8.17 ± 0.57
328.15 K, x1 = 0.8306 | – | 1320 ± 8 | 8.8 ± 0.61
328.15 K, x1 = 0.9121 | – | 1322 ± 8 | 9.48 ± 0.66
328.15 K, x1 = 1 | 1004.83 ± 10 | 1324 ± 8 | 10.2 ± 0.7
